Assay results taken from ChEMBL document CHEMBL5724806, “Unraveling interindividual differences and functional consequences of gut microbial metabolism of immunosuppressants” (2024).

How the values were obtained:
Type in all cases: ADME
[1] = (§1) The drug is tested on the gut metagenome community of A-03 with ENA study accession number: PRJEB31790 for biotransformation under anaerobic condition. The drug concentrations were measured over 7 timepoints collected between 0 and 12 hours of incubation by liquid-chromatography-coupled mass spectrometry (LC–MS); parameters: dose 5 uM, timepoint 0, 0.75, 1.5, 3, 6, 9, 12 hours; conditions: 5 µM
[2] = The drug is tested on Parabacteroides distasonis strain: DSM20701 for biotransformation under anaerobic condition. The drug concentrations were measured over 6 timepoints collected between 0 and 12 hours of incubation by liquid-chromatography-coupled mass spectrometry (LC–MS); parameters: dose 5 uM, timepoint 0, 1.5, 3, 6, 9, 12 hours; conditions: 5 µM
[3] = The drug is tested on Enterococcus faecalis strain: ATCC29212 for biotransformation under microaerobic condition. The drug concentrations were measured over 6 timepoints collected between 0 and 12 hours of incubation by liquid-chromatography-coupled mass spectrometry (LC–MS); parameters: dose 5 uM, timepoint 0, 1.5, 3, 6, 9, 12 hours; conditions: 5 µM
[4] = The drug is tested on Bacteroides thetaiotaomicron strain: DSM2079 for biotransformation under anaerobic condition. The drug concentrations were measured over 6 timepoints collected between 0 and 12 hours of incubation by liquid-chromatography-coupled mass spectrometry (LC–MS); parameters: dose 5 uM, timepoint 0, 1.5, 3, 6, 9, 12 hours; conditions: 5 µM
[5] = as §1, with “P-01” for “A-03”; parameters: dose 5 uM, timepoint 0, 0.75, 1.5, 3, 6, 9, 12 hours; conditions: 5 µM
[6] = as §1, with “A-10” for “A-03”; parameters: dose 5 uM, timepoint 0, 0.75, 1.5, 3, 6, 9, 12 hours; conditions: 5 µM
[7] = as §1, with “A-08” for “A-03”, “microaerobic” for “anaerobic”; parameters: dose 5 uM, timepoint 0, 0.75, 1.5, 3, 6, 9, 12 hours; conditions: 5 µM
[8] = The drug is tested on Capnocytophaga ochracea strain: DSM7271 for biotransformation under anaerobic condition. The drug concentrations were measured over 6 timepoints collected between 0 and 12 hours of incubation by liquid-chromatography-coupled mass spectrometry (LC–MS); parameters: dose 5 uM, timepoint 0, 1.5, 3, 6, 9, 12 hours; conditions: 5 µM
[9] = The drug is tested on Roseburia intestinalis strain: DSM14610 for biotransformation under anaerobic condition. The drug concentrations were measured over 6 timepoints collected between 0 and 12 hours of incubation by liquid-chromatography-coupled mass spectrometry (LC–MS); parameters: dose 5 uM, timepoint 0, 1.5, 3, 6, 9, 12 hours; conditions: 5 µM
[10] = The drug is tested on Streptococcus sanguinis strain: DSM20567 for biotransformation under microaerobic condition. The drug concentrations were measured over 6 timepoints collected between 0 and 12 hours of incubation by liquid-chromatography-coupled mass spectrometry (LC–MS); parameters: dose 5 uM, timepoint 0, 1.5, 3, 6, 9, 12 hours; conditions: 5 µM
[11] = The drug is tested on Streptococcus anginosus strain: DSM20563 for biotransformation under anaerobic condition. The drug concentrations were measured over 6 timepoints collected between 0 and 12 hours of incubation by liquid-chromatography-coupled mass spectrometry (LC–MS); parameters: dose 5 uM, timepoint 0, 1.5, 3, 6, 9, 12 hours; conditions: 5 µM
[12] = The drug is tested on Capnocytophaga ochracea strain: DSM7271 for biotransformation under microaerobic condition. The drug concentrations were measured over 6 timepoints collected between 0 and 12 hours of incubation by liquid-chromatography-coupled mass spectrometry (LC–MS); parameters: dose 5 uM, timepoint 0, 1.5, 3, 6, 9, 12 hours; conditions: 5 µM
[13] = as §1, with “A-05” for “A-03”; parameters: dose 5 uM, timepoint 0, 0.75, 1.5, 3, 6, 9, 12 hours; conditions: 5 µM
[14] = The drug is tested on Faecalibacterium prausnitzii strain: DSM17677 for biotransformation under anaerobic condition. The drug concentrations were measured over 6 timepoints collected between 0 and 12 hours of incubation by liquid-chromatography-coupled mass spectrometry (LC–MS); parameters: dose 5 uM, timepoint 0, 1.5, 3, 6, 9, 12 hours; conditions: faecalibacterium duncaniae, 5 µM
[15] = The drug is tested on Actinomyces naeslundi strain: DSM43013 for biotransformation under microaerobic condition. The drug concentrations were measured over 6 timepoints collected between 0 and 12 hours of incubation by liquid-chromatography-coupled mass spectrometry (LC–MS); parameters: dose 5 uM, timepoint 0, 1.5, 3, 6, 9, 12 hours; conditions: actinomyces naeslundii, 5 µM
[16] = as §1, with “A-10” for “A-03”, “microaerobic” for “anaerobic”; parameters: dose 5 uM, timepoint 0, 0.75, 1.5, 3, 6, 9, 12 hours; conditions: 5 µM
[17] = as §1, with “T-02” for “A-03”, “microaerobic” for “anaerobic”; parameters: dose 5 uM, timepoint 0, 0.75, 1.5, 3, 6, 9, 12 hours; conditions: 5 µM
[18] = as §1, with “A-09” for “A-03”; parameters: dose 5 uM, timepoint 0, 0.75, 1.5, 3, 6, 9, 12 hours; conditions: 5 µM
[19] = The drug is tested on Bacteroides stercoris strain: HM 1036 for biotransformation under anaerobic condition. The drug concentrations were measured over 6 timepoints collected between 0 and 12 hours of incubation by liquid-chromatography-coupled mass spectrometry (LC–MS); parameters: dose 5 uM, timepoint 0, 1.5, 3, 6, 9, 12 hours; conditions: 5 µM
[20] = The drug is tested on Prevotella copri strain: DSM18205 for biotransformation under anaerobic condition. The drug concentrations were measured over 6 timepoints collected between 0 and 12 hours of incubation by liquid-chromatography-coupled mass spectrometry (LC–MS); parameters: dose 5 uM, timepoint 0, 1.5, 3, 6, 9, 12 hours; conditions: segatella copri, 5 µM
[21] = as §1, with “A-04” for “A-03”, “microaerobic” for “anaerobic”; parameters: dose 5 uM, timepoint 0, 0.75, 1.5, 3, 6, 9, 12 hours; conditions: 5 µM
[22] = The drug is tested on Gemella morbillorum strain: DSM20572 for biotransformation under microaerobic condition. The drug concentrations were measured over 6 timepoints collected between 0 and 12 hours of incubation by liquid-chromatography-coupled mass spectrometry (LC–MS); parameters: dose 5 uM, timepoint 0, 1.5, 3, 6, 9, 12 hours; conditions: 5 µM
[23] = The drug is tested on Enterococcus faecalis strain: ATCC29212 for biotransformation under anaerobic condition. The drug concentrations were measured over 6 timepoints collected between 0 and 12 hours of incubation by liquid-chromatography-coupled mass spectrometry (LC–MS); parameters: dose 5 uM, timepoint 0, 1.5, 3, 6, 9, 12 hours; conditions: 5 µM
[24] = as §1, with “T-03” for “A-03”, “microaerobic” for “anaerobic”; parameters: dose 5 uM, timepoint 0, 0.75, 1.5, 3, 6, 9, 12 hours; conditions: 5 µM
[25] = The drug is tested on Lactobacillus ruminis strain: ATCC25644 for biotransformation under anaerobic condition. The drug concentrations were measured over 6 timepoints collected between 0 and 12 hours of incubation by liquid-chromatography-coupled mass spectrometry (LC–MS); parameters: dose 5 uM, timepoint 0, 1.5, 3, 6, 9, 12 hours; conditions: ligilactobacillus ruminis, 5 µM
[26] = The drug is tested on Parabacteroides merdae strain: DSM19495 for biotransformation under anaerobic condition. The drug concentrations were measured over 6 timepoints collected between 0 and 12 hours of incubation by liquid-chromatography-coupled mass spectrometry (LC–MS); parameters: dose 5 uM, timepoint 0, 1.5, 3, 6, 9, 12 hours; conditions: 5 µM
[27] = as §1, with “P-04” for “A-03”; parameters: dose 5 uM, timepoint 0, 0.75, 1.5, 3, 6, 9, 12 hours; conditions: 5 µM
[28] = The drug is tested on Bifidobacterium adolescentis strain: DSM20083 for biotransformation under anaerobic condition. The drug concentrations were measured over 6 timepoints collected between 0 and 12 hours of incubation by liquid-chromatography-coupled mass spectrometry (LC–MS); parameters: dose 5 uM, timepoint 0, 1.5, 3, 6, 9, 12 hours; conditions: 5 µM
[29] = The drug is tested on Lactobacillus gasseri strain: DSM20243 for biotransformation under microaerobic condition. The drug concentrations were measured over 6 timepoints collected between 0 and 12 hours of incubation by liquid-chromatography-coupled mass spectrometry (LC–MS); parameters: dose 5 uM, timepoint 0, 1.5, 3, 6, 9, 12 hours; conditions: 5 µM
[30] = The drug is tested on Bifidobacterium longum strain: DSM20088 for biotransformation under microaerobic condition. The drug concentrations were measured over 6 timepoints collected between 0 and 12 hours of incubation by liquid-chromatography-coupled mass spectrometry (LC–MS); parameters: dose 5 uM, timepoint 0, 1.5, 3, 6, 9, 12 hours; conditions: 5 µM

Bacterial Biotransformation [1] | Bacterial Biotransformation [2] | Bacterial Biotransformation [3] | Bacterial Biotransformation [4] | Bacterial Biotransformation [5] | Bacterial Biotransformation [6] | Bacterial Biotransformation [7] | Bacterial Biotransformation [8] | Bacterial Biotransformation [9] | Bacterial Biotransformation [10] | Bacterial Biotransformation [11] | Bacterial Biotransformation [12] | Bacterial Biotransformation [13] | Bacterial Biotransformation [14] | Bacterial Biotransformation [15] | Bacterial Biotransformation [16] | Bacterial Biotransformation [17] | Bacterial Biotransformation [18] | Bacterial Biotransformation [19] | Bacterial Biotransformation [20] | Compound | other results
Compound NOT metabolized | Compound NOT metabolized | Compound NOT metabolized | Compound NOT metabolized | Compound NOT metabolized | Compound NOT metabolized | Compound NOT metabolized | Compound NOT metabolized | Compound NOT metabolized | Compound NOT metabolized | Compound NOT metabolized | Compound NOT metabolized | Compound NOT metabolized | Compound NOT metabolized | Compound NOT metabolized | Compound NOT metabolized | Compound NOT metabolized | Compound NOT metabolized | Compound NOT metabolized | Compound NOT metabolized | CCOc1nc2cccc(C(=O)O)c2n1Cc1ccc(-c2ccccc2-c2nnn[nH]2)cc1 | Bacterial Biotransformation [21]: Compound NOT metabolized; Bacterial Biotransformation [22]: Compound NOT metabolized; Bacterial Biotransformation [23]: Compound NOT metabolized; Bacterial Biotransformation [24]: Compound NOT metabolized; Bacterial Biotransformation [25]: Compound NOT metabolized; Bacterial Biotransformation [26]: Compound NOT metabolized; Bacterial Biotransformation [27]: Compound NOT metabolized; Bacterial Biotransformation [28]: Compound NOT metabolized; Bacterial Biotransformation [29]: Compound NOT metabolized; Bacterial Biotransformation [30]: Compound NOT metabolized
Compound NOT metabolized | Compound NOT metabolized | Compound NOT metabolized | Compound NOT metabolized | Compound NOT metabolized | Compound NOT metabolized | Compound NOT metabolized | Compound NOT metabolized | Compound NOT metabolized | Compound NOT metabolized | Compound NOT metabolized | Compound NOT metabolized | Compound NOT metabolized | Compound NOT metabolized | Compound NOT metabolized | Compound NOT metabolized | Compound NOT metabolized | Compound NOT metabolized | Compound NOT metabolized | Compound NOT metabolized | C[C@@H](NCCCc1cccc(C(F)(F)F)c1)c1cccc2ccccc12 | Bacterial Biotransformation [21]: Compound NOT metabolized; Bacterial Biotransformation [22]: Compound NOT metabolized; Bacterial Biotransformation [23]: Compound NOT metabolized; Bacterial Biotransformation [24]: Compound NOT metabolized; Bacterial Biotransformation [25]: Compound NOT metabolized; Bacterial Biotransformation [26]: Compound NOT metabolized; Bacterial Biotransformation [27]: Compound NOT metabolized; Bacterial Biotransformation [28]: Compound NOT metabolized; Bacterial Biotransformation [29]: Compound NOT metabolized; Bacterial Biotransformation [30]: Compound NOT metabolized
Compound metabolized | Compound NOT metabolized | Compound NOT metabolized | Compound NOT metabolized | Compound metabolized | Compound metabolized | Compound metabolized | Compound NOT metabolized | Compound NOT metabolized | Compound NOT metabolized | Compound NOT metabolized | Compound NOT metabolized | Compound metabolized | Compound metabolized | Compound NOT metabolized | Compound metabolized | Compound metabolized | Compound metabolized | Compound NOT metabolized | Compound NOT metabolized | C[C@]12C=CC(=O)C=C1CC[C@@H]1[C@@H]2C(=O)C[C@@]2(C)[C@H]1CC[C@]2(O)C(=O)CO [PREDNISONE] | Bacterial Biotransformation [21]: Compound metabolized; Bacterial Biotransformation [22]: Compound NOT metabolized; Bacterial Biotransformation [23]: Compound NOT metabolized; Bacterial Biotransformation [24]: Compound NOT metabolized; Bacterial Biotransformation [25]: Compound NOT metabolized; Bacterial Biotransformation [26]: Compound NOT metabolized; Bacterial Biotransformation [27]: Compound metabolized; Bacterial Biotransformation [28]: Compound NOT metabolized; Bacterial Biotransformation [29]: Compound NOT metabolized; Bacterial Biotransformation [30]: Compound NOT metabolized
